Reference: paper PMC5895817, “A Bowman-Birk type chymotrypsin inhibitor peptide from the amphibian, Hylarana erythraea” (Scientific Reports, 2018)
Entries after “also recorded” stand apart in the source; their conditions may differ.

Legend:
[1] = molecular target: T1, human 20 S proteasome (Homo sapiens, UniProt P28074); assay: Human 20 S proteasome inhibition (chymotrypsin-like activity); format: biochemical; conditions: chymotrypsin-like activity of human 20 S proteasome (7 nM working solution); substrate Suc-Leu-Leu-Val-Tyr-AMC; 50 mM HEPES, 0.035% SDS, pH 7.5; pre-incubation 15 min, 37 °C; Morrison equation; duplicate, repeated three times
T1 construct: purchased Biochem, Boston, MA, USA
Experimental: (§1) Phe-Pro-Arg-AMC, Succinyl-Ala-Ala-Pro-Phe-AMC and Suc-Leu-Leu-Val-Tyr-AMC (Abcam, Cambridge, UK) were used as substrates for trypsin, chymotrypsin and human 20 S proteasome respectively. 10 μl trypsin/chymotrypsin working solution (1 µg/ml) were added to the wells of a micro-titre plate containing 180 μl substrate and various inhibitor solutions. 10 μl human 20 S proteasome (Biochem, Boston, MA, USA) working solution (7 nM) in 50 mM HEPES buffer containing 0.035% SDS, pH 7.5 was added to the well of a micro-titre plate containing 180 μl substrate solution and each of various inhibitor solution. Each determination was carried out in duplicate. The rate of hydrolysis of the trypsin/chymotrypsin substrate was monitored subsequently and continuously, at 37 °C, by measuring the rate of increase of fluorescence in a FLUOstar OPTIMA multi-well plate reader (BMG Labtech, Ortenberg, Germany). For the 20 S proteasome, the rate of hydrolysis of the substrate was monitored after a pre-incubation for 15 min, at 37 °C. […] Each assay was repeated three times.

[2] = system: horse erythrocytes; assay: Haemolysis activity test; format: cell-based; conditions: 2% suspension in PBS, 1–512 μM, 37 °C, 4 h, absorbance 550 nm, 5 replicates, three independent experiments
Experimental: Completely washed horse erythrocyte (TCS Biosciences Ltd., Buckingham, UK) suspension was prepared using phosphate-buffered saline (PBS). A series of peptide solutions were incubated with a 2% suspension of red blood cells at final concentrations of 1–512 μM at 37 °C for 4 h. After the incubation, 200 μl of each supernatant was transferred into a 96-well plate and the absorbance at 550 nm was measured with a Synergy HT plate reader (BioTek Instruments, Inc., Winooski, VT, USA). The BioTek’s Gen5^TM software was used to analyse the result. (Biolise BioTek EL808, Winooski, VT, USA). All the peptide concentrations and controls had 5 replicates in single 96-well plate and three independent experiments were performed.

[3] = system: HMEC-1; assay: MTT cell viability, normal cell line HMEC-1; format: cell-based; conditions: 24 h, 5 replicates, three independent experiments
Experimental: The cancer cell line H157 (ATCC-CRL-5802, ATCC, Teddington, Middlesex, UK) and PC-3 (ATCC-CRL-1435, ATCC, Teddington, Middlesex, UK) were cultured in RPMI-1640 culture medium (Invitrogen, Paisley, UK) containing 10% FBS and 1% Penicillin-Streptomycin. MCF-7 (ATCC-HTB-22, ATCC, Teddington, Middlesex, UK) was cultured in DMEM culture medium (Invitrogen, Paisley, UK) containing 10% FBS and 1% Penicillin-Streptomycin. The normal cell line HMEC-1 (ATCC-CRL-3243, ATCC, Teddington, Middlesex, UK) was cultured in MCDB131 medium (Gibco, Paisley, UK) containing 10% FBS (foetal bovine serum, obtained from Sigma-Aldrich, St. Louis, MO, USA), 1% Penicillin-Streptomycin (Invitrogen, Paisley, UK), epidermal growth factor (10 ng/mL), hydrocortisone (1 μg/mL, obtained from Sigma-Aldrich, St. Louis, MO, USA) and glutamine (10 mM). Cells were seeded into a 96-well plate and incubated for 24 h (37 °C, 5% CO2) followed by starvation using serum-free medium. Sample solutions were loaded on this plate which was further incubated for 24 h. The 3-(4,5-dimethylthiazol-2-yl)-2,5-diphenyltetrazolium bromide (MTT) solution (5 mg/ml, 10 μl/well) was utilized to form the formazan after a 4 h incubation. Cell-produced-formazan was dissolved in DMSO (100 μl/well). The absorbance was recorded by using an ELx808^TM Absorbance Microplate Reader at 570 nm (BioTek Instruments, Inc., Winooski, VT, USA). […]

[4] = molecular target: T2, trypsin (Bos taurus, UniProt P00760); assay: Trypsin/chymotrypsin inhibition assay (Morrison): trypsin; format: biochemical; conditions: substrate Phe-Pro-Arg-AMC, 37 °C, fluorescence, Morrison equation, each determination in duplicate, assay repeated three times
T2 construct: gene PRSS1
T2 sequence (P00760 24-246): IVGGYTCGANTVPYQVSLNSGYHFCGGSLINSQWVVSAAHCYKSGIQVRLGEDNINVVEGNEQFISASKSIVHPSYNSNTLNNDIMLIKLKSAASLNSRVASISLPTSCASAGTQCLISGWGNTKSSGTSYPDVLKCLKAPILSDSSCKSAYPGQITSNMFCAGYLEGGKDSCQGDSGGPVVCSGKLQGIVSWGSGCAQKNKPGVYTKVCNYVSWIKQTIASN
Experimental: as §1

[5] = molecular target: chymotrypsin (Bos taurus, UniProt P00766); assay: Trypsin/chymotrypsin inhibition assay (Morrison): chymotrypsin; format: biochemical
Experimental: as §1

Row | Ki [1] | SMILES | haemolysis [2] | cytotoxicity / growth inhibition on normal cells HMEC-1 [3] | Ki [4] | Ki [5]
1 | 8.55 ± 1.84 µM | CC[C@H](C)[C@H](NC(=O)[C@@H]1CSSC[C@H](NC(=O)CNC(=O)[C@H](CCCNC(=N)N)NC(=O)[C@H](CC(C)C)NC(=O)[C@@H](NC(=O)[C@@H](N)[C@@H](C)O)C(C)C)C(=O)N[C@@H](Cc2c[nH]c3ccccc23)C(=O)N[C@@H]([C@@H](C)O)C(=O)N[C@@H](Cc2ccccc2)C(=O)N[C@@H](CO)C(=O)N[C@@H](Cc2ccccc2)C(=O)N2CCC[C@H]2C(=O)N2CCC[C@H]2C(=O)N[C@@H](CCCCN)C(=O)N2CCC[C@H]2C(=O)N1)C(N)=O [HECI, TVLRGCWTFSFPPKPCI-NH2] |  |  |  | 
2 |  | CC[C@H](C)[C@H](NC(=O)[C@@H]1CSSC[C@H](NC(=O)CNC(=O)[C@H](CCCNC(=N)N)NC(=O)[C@H](CC(C)C)NC(=O)[C@@H](NC(=O)[C@@H](N)[C@@H](C)O)C(C)C)C(=O)N[C@@H](Cc2c[nH]c3ccccc23)C(=O)N[C@@H]([C@@H](C)O)C(=O)N[C@@H](CCCCN)C(=O)N[C@@H](CO)C(=O)N[C@@H](Cc2ccccc2)C(=O)N2CCC[C@H]2C(=O)N2CCC[C@H]2C(=O)N[C@@H](CCCCN)C(=O)N2CCC[C@H]2C(=O)N1)C(N)=O [K^9-HECI, TVLRGCWTKSFPPKPCI-NH2] | low degree of haemolytic activity; also recorded: low degree of haemolysis | low degree of cytotoxicity; also recorded: low degree of inhibition; also recorded: only slight cytotoxicity on HMEC-1 | 0.79 ± 0.04 µM | 13.9 ± 1.09 µM
